From US5196577A, “Compound marked with tritium, its preparation and its use in particular in the determination of the affinity of retinoids for their nuclear receptors and their cytosolic binding protein” (Centre International de Recherches Dermatologiques, priority 1988, dated 1993)
pEC50, pIC50, pKd: −log10 of the molar value. Entries after “also recorded” stand apart in the source; their conditions may differ. Where two headings read alike, the source gives them in different places.

Experiments:
[1] = tested on: F9 cells; assay: Production of secreted plasminogen activator by differentiating F9 cells (biological activity, CPA50); format: cell-based, murine; settings: for pEC50: Mus musculus, read-out: BIOLOGICAL ACTIVITY CPA50
Excerpt: The biological activity of the retinoids can be measured on the F9 cells by quantifying the production of the plasminogen activator secreted consecutively with the differentiation of said cells, caused by the retinoids. CPA50 is the concentration of retinoids causing an induction of 50% of the maximum of the secreted plasminogen activator. By comparing the IC50 and CPA50 values on Table 1, it can be noted that there is an excellent correlation between the affinity of the retinoids for the RARs and their biological activity (see also the straight regression line of FIG. 4). The only exception is retinoic acid itself. […] In effect, the IC50 measurement is carried out after an incubation of 3 hours, while the CPA50 measurement is carried out after a incubation of 3 days.

[2] = tested on: retinoic acid nuclear receptors (RARs); assay: Competition with the tritiated compound of example 1 for RARs in F9 cells (HPSEC of nucleosol); format: binding, murine; settings: for pIC50: competition with 2 nM tritiated compound of example 1, incubation of 3 hours, read-out: AFFINITY RARs:IC50
Description: (§1) Cultures of F9 cells of murin embryonic carcinoma (normally four 90 mm dishes containing in total 2-4×10^7 cells per incubation condition) were washed once with PBS (saline phosphate buffer) and incubated for 3 hours in a medium, without serum, supplemented with the marked retinoid in the absence or the presence of a cold retinoid homolog or heterolog (to verify the specificity and for comparison experiments). The cells were then detached with a trypsin EDTA mixture and numbered with a Burker hemocytometer. The nucleosol containing RARs was extracted from the purified nuclei using the method described by Daly and Redfern (1987) (that is, after treatment using DNAase and NaCl 0.6M), and analyzed using high performance exclusion chromatography (HPSEC). 50 μl of marked extract were injected on a 9×250 mm GF250 column (Dupont de Nemours). The elution was carried out in a buffer 0.3M KH2 PO4 pH 7.8 at a rate of 1 ml/min. The protein content was followed by measuring the optical density at 280 nm. 28 fractions of 0.3 ml each were collected and counted in Picofluor (Packard) scintillating agent. For each retinoid concentration, the number of bonded molecules was determined using the surface of the radioactivity peak and the calculated concentration of demi-saturation (C50). […] The dose-response curves and the competition curves were analyzed on a computer through non-linear regression using the various forms of the Clark equation.
In view of its stability and its excellent affinity for the RARs, the compound of example 1 in principle enables the determination by competition of the affinity of no matter which retinoid for the RARs.
The […] profiles are obtained after incubation of the F9 cells with 2×10^-9 M of the compound of example 1 in the absence (- ) or in the presence of 10^-9 M(.quadrature.-.quadrature.), 10^-8 M (- ), 10^-7 M (Δ-Δ), 10^-6 M (- ) of cold competitors. I=the unmarked compound of example 1. RA=retinoic acid. For each competition concentration, the peak surface is expressed as a percentage of the surface obtained with the compound of example 1 without competition.
By measuring the surface of the radioactive peak for each concentration of cold competition, it is possible to trace the competition sigmoids. Data processing of these curves enables the determination of the IC50 (50% inhibiting concentration) of each retinoid.

[3] = target: T1, CRABP (Rattus norvegicus, UniProt P62966); assay: Competition with the claimed marked compound for CRABP; format: binding
T1 construct: rat testicle cytosol containing CRABP; from tissue
T1 sequence (P62966 whole entry): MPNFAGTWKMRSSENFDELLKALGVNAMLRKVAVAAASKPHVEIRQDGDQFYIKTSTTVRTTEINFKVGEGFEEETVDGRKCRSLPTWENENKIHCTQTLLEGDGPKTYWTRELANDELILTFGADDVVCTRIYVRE
Description: These competition experiments are carried out in the following manner: a fixed quantity of radioactive ligand (corresponding substantially to the demi-saturation, in our case 4 nM) is mixed with increasing quantities of cold ligand (non-radioactive). Then the binding protein is added and the quantity of radioactive ligand fixed to the balance is determined (in % of the initial fixing in the absence of cold ligand, for the quantity of CRABP under consideration).
From the competition curves, the IC50 (concentration of cold ligand reducing the attachment of the tritiated ligand by 50%) is determined. This IC50 value enables the calculation in each case of the dissociation constant from the balance (Kd) for the cold ligand.

[4] = tested on: retinoic acid nuclear receptors (RARs); assay: Direct fixing of tritiated ligand on RARs of F9 cells (HPSEC of nucleosol); format: binding, murine; settings: 200 nM tritiated ligand; for specific fixing on RARs in presence of excess cold homolog ligand: 100-fold excess (20000 nM) cold ligand, FIG. 1; for ligand fixed to the RARs per cell: FIG. 2
Description: as §1
When the above-describe method is used and the F9 cells are incubated with the compound of example 1 at a concentration of 200 nM, a single radioactivity peak is observed in the nuclear extract (FIG. 1B). The molecular weight corresponding to the average fraction of the peak is approximately 45 kDa, a number close to the molecular weight of human RARs, as has been calculated from the sequence of their DNAc (Petkovich et al, 1987; Brand et al, 1988), and is compatible with the 4S sedimentation coefficient of murin receptors (Daly & Redfer, 1987). The fixing is specific since it is abolished when the cells are coincubated with an excess of 100 times of the cold compound I (FIG. 1B). There is no CRABP in the nucleosoilc extract of F9, as already underlined by Daly and Redfern (1987).
It can be noted that the radioactive peak elutes at the same position as with the compound of example 1.
The two compounds were used at a concentration of 200 nM. The quantity of ligand bonded to the RARs is expressed in molecules per cell.
To determine the concentration of the compound of example 1 giving 50% saturation of the RARs (C50), a saturation curve has been traced expressing the surface of the radioactive peak as a function of varied concentrations of the compound of example 1. The C50 is between 0.5 and 2 nM.

[5] = Stability of ligand (general statements); format: physicochemical; settings: statement in words, no data
[6] = target: T1, CRABP; assay: Direct fixing (saturation) of tritiated ligand on CRABP in rat testicle cytosol; format: binding; settings: for non-specific fixing as part of total fixing on CRABP: 1 μM cold homolog ligand; for concentration of CRABP in rat testicle cytosol found with the marked retinoid: saturating concentration of marked retinoid
Description: The difference (- ) represents the specific bond.
The total fixing (non-specific+specific (1-1) is obtained by incubation of increasing concentrations (up to a maximum of 125 nM) of the claimed compound with a constant quantity (0.3 ml) of a rat testicle homogenate (CRABP-rich organ). The non-specific fixing of the tritiated compound is determined in parallel, by measuring the fixing with increasing concentrations of the radioactive ligand in the presence of a large excess (1 μM) of cold homolog ligand (.quadrature.-.quadrature.). An incubation time of two hours is necessary for the establishment of balanced conditions.
Once the balance is achieved, the tritiated CRABP-ligand complex is separated from the non-bonded ligand by filtration on a Sephadex G25 exclusion gel column (BIO-Rad econo columns, 0.5× 20 cm): the complex is eluted (elution peak at 2.5 ml), while the non-bonded ligand is retained in totality on the column. […] The elution is done directly in scintillation tubes and the radioactivity is measured by counting.
The difference between the total fixing curve (- )and the non-specific fixing curve (.quadrature.-.quadrature.) gives the specific fixing curve ( - ). Analysis of this curve provides the dissociation constant with the balance (Kd), which is the concentration of product necessary to saturate 50% of the CRABP. This constant is a measurement of the affinity of the ligand for its binding protein, with the Kd being inversely proportional to the affinity (the lower the Kd, the greater the affinity).
The concentration of CRABP in the rat testicle cytosol used for the experiment can be determined in binding experiments where the marked retinoids are used at a saturating concentration.

[7] = by radiolysis, oxidation and photolysis; background statement; cited from earlier work
[8] = 72 h, concentration causing induction of 50% of the maximum of secreted plasminogen activator, F9 cells, incubation of 3 days
[9] = Table 1, Kd calculated from competition IC50, radioligand about 4 nM, read-out: AFFINITY CRABP:Kd

| pEC50 [1, 8] | pKd [3, 9] | Compound | pIC50 ([2]; F9 cells) | pEC50 ([1]; F9, 72 h) | pKd [3] | also measured |
| --- | --- | --- | --- | --- | --- | --- |
| 9.00 | 8.40 | CC1(C)CCC(C)(C)c2cc3cc(-c4ccc(C(=O)O)cc4)ccc3cc21 [Compound I, 4-(5,6,7,8-tetrahydro-5,5,8,8-tetramethyl-2-anthracenyl) benzoic acid] | 9.10 | – | – | affinity for the RARs relative to retinoic acid ([2]; from IC50 of Table 1): six times; specific fixing on RARs in presence of excess cold homolog ligand [4]: abolished |
| – | – | CC1(C)CCC(C)(C)c2cc(-c3cc4ccc(C(=O)O)cc4s3)ccc21 [Compound IV, 2(5,6,7,8-tetrahydro-5,5,8,8-tetramethyl-2-naphthyl)-6-benzo(b)thiophene carboxylic acid] | 7.11 | 7.28 | 8.70 | – |
| – | – | CC1(C)CCC(C)(C)c2cc(-c3cc4ccc(C(=O)O)cc4o3)ccc21 [Compound VI, 2(5,6,7,8-tetrahydro-5,5,8,8-tetramethyl-2-naphthyl)-6 benzo(b)furan carboxylic acid] | 6.11 | 6.17 | 6.70 | – |
| 7.07 | 6.70 | CC1(C)CCC(C)(C)c2cc(C(=O)Nc3ccc(C(=O)O)cc3)ccc21 [Compound VII, 4(5,6,7,8-tetrahydro-5,5,8,8-tetramethyl-2-naphthamido) benzoic acid] | 7.12 | – | – | – |
| – | – | Cc1c(C(=O)O)cc(S)c2cc(-c3ccc4c(c3)C(C)(C)CCC4(C)C)ccc12 [Compound VIII, 1methyl-4-thiol-6-(5,6,7,8-tetrahydro-5,5,8,8-tetramethyl-2-naphthyl)-2-nphthoic acid] | < 5.00 | < 5.00 | 6.70 | biological activity (in words) ([1]; F9 cells, FIG. 4): biologically inactive; also recorded: below the threshold of detection; affinity for the RARs (in words) ([2]; F9 cells, FIG. 4): below the threshold of detection |
| – | – | CC1(C)CCC(C)(C)c2cc3cc(-c4ccc(C(=O)O)cc4)ccc3cc21 [Example 1, 4-(5,6,7,8-tetrahydro-5,5,8,8-tetramethyl-2-anthracenyl) benzoic acid marked with tritium] | – | – | – | stability of the ligand [5]: very stable; ligand fixed to the RARs per cell [4]: approximately 4,000 molecules per cell; character of non-specific fixing on CRABP ([6]; in the range of concentrations used, rat testicle): linear and non-saturable; character of specific fixing on CRABP ([6]; rat testicle): saturable and reversible; non-specific fixing as part of total fixing on CRABP ([6]; rat testicle): less than 10%; concentration of CRABP in rat testicle cytosol found with the marked retinoid [6]: 10-12 pmol/mg protein |
| – | – | CC1=C(/C=C/C(C)=C/C=C/C(C)=C/C(=O)O)C(C)(C)CCC1 [Retinoic acid] | 8.30 | 6.46 | – | degradation of retinoic acid [7]: rapidly degraded; stability of the ligand [5]: high instability; specific fixing on RARs in presence of excess cold homolog ligand [4]: the peak is not observed; ligand fixed to the RARs per cell [4]: approximately 4,000 molecules per cell; non-specific fixing as part of total fixing on CRABP ([6]; rat testicle): approximately 25%; concentration of CRABP in rat testicle cytosol found with the marked retinoid [6]: 10-12 pmol/mg protein |
| 5.60 | 6.22 | CC1=C(/C=C/C(C)=C/C=C/C(C)=C/CO)C(C)(C)CCC1 [Retinol] | 5.85 | – | – | – |

| Compound | pEC50 [1, 8] | pKd [3, 9] | pIC50 ([2]; F9 cells) | pEC50 ([1]; F9, 72 h) | pKd [3] | also measured |
| --- | --- | --- | --- | --- | --- | --- |
| CC1(C)CCC(C)(C)c2cc(-c3ccc4cc(C(=O)O)ccc4c3)ccc21 [Compound V, 6(5,6,7,8-tetrahydro-5,5,8,8-tetramethyl-2-naphthyl)-2-naphthoic acid] | 7.18 | 7.70 | 7.92 | – | – | – |
